Key:
SC2 = biological target: T1, SC2 (Homo sapiens, UniProt Q9ULG1); test: coupled NADH fluorescence ATPase assay (PK/LDH); type: biochemical; settings: 1 mM ATP, 100 nM nucleosome, 37°C
T1 construct: gene INO80; insect cells; with RuvB-like 1; RuvB-like 2

hIno80ΔIes2 complex = biological target: T2, hIno80ΔIes2 complex (Homo sapiens, UniProt Q9ULG1); settings: basal, no nucleosome; ATP:MgCl2:TRIS base 1:1:2; 37°C
T2 construct: gene INO80

[1] = biological target: T3, hIno80 core complex (wild type) (Homo sapiens, UniProt Q9ULG1); set-up: gene INO80; settings: basal, no nucleosome; ATP:MgCl2:TRIS base 1:1:2; 37°C
From the text: coupled NADH fluorescence ATPase assay (PK/LDH) on hIno80 core complex (wild type)

[2] = biological target: T3, hIno80 core complex (wild type); test: coupled NADH fluorescence ATPase assay (PK/LDH); type: biochemical; set-up: gene INO80; nine-subunit core, Ino80 267-1556 with N-terminal 8-His and C-terminal twin Strep-tag II; codon-optimised genes, BTI-TN-5B1-4 insect cells (MultiBac); calculated 743583 Da, SEC-MALS 802 kDa; actin gene not specified; Actin-like protein 6A; Actin-related protein 5; Actin-related protein 8; INO80 complex subunit B; INO80 complex subunit C; RuvB-like 1; RuvB-like 2; settings: 100 nM H2A nucleosome, ATP varied, 5 mM Mg2+, 37°C; non-competitive with ATP, competitive with nucleosomes; allosteric

T1 sequence (Q9ULG1 487-1556): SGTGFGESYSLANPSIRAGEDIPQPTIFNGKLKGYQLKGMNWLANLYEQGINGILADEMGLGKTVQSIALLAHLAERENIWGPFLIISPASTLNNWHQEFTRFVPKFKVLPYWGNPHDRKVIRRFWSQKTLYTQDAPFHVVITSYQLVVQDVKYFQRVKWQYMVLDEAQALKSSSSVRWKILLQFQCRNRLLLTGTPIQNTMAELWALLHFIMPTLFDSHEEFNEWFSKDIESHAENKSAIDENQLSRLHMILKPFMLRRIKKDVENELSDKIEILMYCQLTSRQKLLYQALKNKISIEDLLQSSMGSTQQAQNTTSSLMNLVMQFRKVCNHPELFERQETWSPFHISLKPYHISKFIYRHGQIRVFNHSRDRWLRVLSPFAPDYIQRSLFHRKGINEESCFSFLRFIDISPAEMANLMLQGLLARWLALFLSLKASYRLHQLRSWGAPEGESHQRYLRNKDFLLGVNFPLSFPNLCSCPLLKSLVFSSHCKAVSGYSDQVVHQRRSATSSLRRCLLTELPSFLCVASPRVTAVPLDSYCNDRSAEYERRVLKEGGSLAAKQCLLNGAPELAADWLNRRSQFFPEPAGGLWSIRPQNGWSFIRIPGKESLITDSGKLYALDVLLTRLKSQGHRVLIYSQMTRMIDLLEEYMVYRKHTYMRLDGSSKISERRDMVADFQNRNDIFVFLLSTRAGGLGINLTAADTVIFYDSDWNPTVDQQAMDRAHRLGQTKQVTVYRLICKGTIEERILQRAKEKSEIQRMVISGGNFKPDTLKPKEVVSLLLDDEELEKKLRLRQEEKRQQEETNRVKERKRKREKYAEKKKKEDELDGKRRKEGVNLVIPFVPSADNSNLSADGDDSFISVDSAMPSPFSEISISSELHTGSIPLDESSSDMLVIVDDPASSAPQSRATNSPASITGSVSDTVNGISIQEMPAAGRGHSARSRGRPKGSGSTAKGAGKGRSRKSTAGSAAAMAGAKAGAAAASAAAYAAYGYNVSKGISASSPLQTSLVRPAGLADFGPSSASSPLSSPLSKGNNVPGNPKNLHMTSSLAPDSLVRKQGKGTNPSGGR
T1 sequence (Q9Y265 whole entry partner): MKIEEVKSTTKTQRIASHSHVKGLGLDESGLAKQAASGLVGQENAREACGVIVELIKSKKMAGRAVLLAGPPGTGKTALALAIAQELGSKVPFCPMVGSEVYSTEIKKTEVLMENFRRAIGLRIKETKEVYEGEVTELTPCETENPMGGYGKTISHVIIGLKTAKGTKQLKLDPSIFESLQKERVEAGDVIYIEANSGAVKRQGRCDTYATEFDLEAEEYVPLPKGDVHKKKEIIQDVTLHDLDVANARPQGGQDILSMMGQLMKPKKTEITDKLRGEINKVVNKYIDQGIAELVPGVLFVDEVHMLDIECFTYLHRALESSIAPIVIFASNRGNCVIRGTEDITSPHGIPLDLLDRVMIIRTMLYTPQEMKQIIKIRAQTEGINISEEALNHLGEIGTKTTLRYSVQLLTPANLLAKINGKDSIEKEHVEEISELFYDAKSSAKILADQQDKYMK
T1 sequence (Q9Y230 2-463 partner): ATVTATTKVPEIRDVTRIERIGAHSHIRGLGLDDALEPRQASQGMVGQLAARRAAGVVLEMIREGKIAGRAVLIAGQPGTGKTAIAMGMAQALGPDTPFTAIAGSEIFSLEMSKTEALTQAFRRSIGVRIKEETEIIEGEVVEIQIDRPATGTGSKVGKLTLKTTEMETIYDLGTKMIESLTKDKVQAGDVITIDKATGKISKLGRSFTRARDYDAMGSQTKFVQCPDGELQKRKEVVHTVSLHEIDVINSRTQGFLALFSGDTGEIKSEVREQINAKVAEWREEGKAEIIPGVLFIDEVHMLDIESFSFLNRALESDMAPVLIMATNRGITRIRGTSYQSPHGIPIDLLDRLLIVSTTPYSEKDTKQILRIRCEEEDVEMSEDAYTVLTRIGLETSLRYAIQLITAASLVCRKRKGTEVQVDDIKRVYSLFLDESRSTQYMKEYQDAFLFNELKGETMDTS

| Structure (SMILES) | coupled NADH fluorescence ATPase assay (PK/LDH) (SC2) | Km (hIno80ΔIes2 complex) | Km [1] | Ki [2] |
| --- | --- | --- | --- | --- |
| Nc1ncnc2c1ncn2[C@@H]1O[C@H](COP(=O)(O)OP(=O)(O)OP(=O)(O)O)[C@@H](O)[C@H]1O [ATP] | Single point inhibition of Ino80 and SC2. | 326 ± 44 µM | 171 ± 55 µM | – |
| O=P(O)(O)O[C@H]1[C@H](OP(=O)(O)O)[C@@H](OP(=O)(O)O)[C@H](OP(=O)(O)O)[C@@H](OP(=O)(O)O)[C@H]1OP(=O)(O)O [IP6] | – | – | – | 37 ± 4 µM |

— paper PMC5041457, “Synergy and antagonism in regulation of recombinant human INO80 chromatin remodeling complex” (Nucleic Acids Research, 2016)
